12 compounds from US20240269139A1, “COMPOUNDS FOR TARGETED PROTEIN DEGRADATION OF KINASES” (DANA-FARBER CANCER INSTITUTE, INC., priority 2020, published 2024) can be followed below.

Holding throughout (assay type): cell-based
The target in experiment [1] is protein kinases (human kinome) (Homo sapiens, UniProt P49840). The conditions noted are these: GSK3A P49840.
Experiment [2] has as its target T1, protein kinases (human kinome) (Homo sapiens, UniProt P29320).
T1 sequence (P29320 21-983): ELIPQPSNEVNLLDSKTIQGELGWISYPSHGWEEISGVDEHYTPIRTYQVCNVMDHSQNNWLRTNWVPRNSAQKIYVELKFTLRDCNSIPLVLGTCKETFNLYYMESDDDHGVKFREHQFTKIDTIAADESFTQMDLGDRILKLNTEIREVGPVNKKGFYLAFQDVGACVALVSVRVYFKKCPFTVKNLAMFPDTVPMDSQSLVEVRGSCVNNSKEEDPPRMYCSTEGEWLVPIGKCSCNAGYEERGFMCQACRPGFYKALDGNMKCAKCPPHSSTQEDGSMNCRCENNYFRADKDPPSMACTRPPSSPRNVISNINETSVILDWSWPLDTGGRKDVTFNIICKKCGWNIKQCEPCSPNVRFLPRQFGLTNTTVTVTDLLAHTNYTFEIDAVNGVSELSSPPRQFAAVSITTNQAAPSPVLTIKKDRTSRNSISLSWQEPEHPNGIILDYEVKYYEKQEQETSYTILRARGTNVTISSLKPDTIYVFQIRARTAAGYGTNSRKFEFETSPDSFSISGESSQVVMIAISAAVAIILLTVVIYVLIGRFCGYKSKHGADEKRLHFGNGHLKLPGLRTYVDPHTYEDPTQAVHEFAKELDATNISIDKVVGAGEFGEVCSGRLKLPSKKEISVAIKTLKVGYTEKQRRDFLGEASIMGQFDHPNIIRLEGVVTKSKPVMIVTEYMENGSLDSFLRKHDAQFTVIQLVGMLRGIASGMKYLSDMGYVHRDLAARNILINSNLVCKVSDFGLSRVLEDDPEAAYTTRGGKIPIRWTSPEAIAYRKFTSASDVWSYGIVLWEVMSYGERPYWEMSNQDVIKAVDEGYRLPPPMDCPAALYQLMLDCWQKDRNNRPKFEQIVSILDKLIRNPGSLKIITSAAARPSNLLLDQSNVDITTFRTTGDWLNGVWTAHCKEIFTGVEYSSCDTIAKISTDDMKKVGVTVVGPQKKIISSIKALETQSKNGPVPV

Experiment [3] addresses protein kinases (human kinome) (Homo sapiens, UniProt Q9Y2K2). The conditions noted are these: for logFC: SIK3 (Q9Y2K2).
Experiment [4] deals with protein kinases (human kinome) (Homo sapiens, UniProt P06239).
Sequence of protein kinases (human kinome) (Homo sapiens, UniProt P06239) (P06239 whole entry): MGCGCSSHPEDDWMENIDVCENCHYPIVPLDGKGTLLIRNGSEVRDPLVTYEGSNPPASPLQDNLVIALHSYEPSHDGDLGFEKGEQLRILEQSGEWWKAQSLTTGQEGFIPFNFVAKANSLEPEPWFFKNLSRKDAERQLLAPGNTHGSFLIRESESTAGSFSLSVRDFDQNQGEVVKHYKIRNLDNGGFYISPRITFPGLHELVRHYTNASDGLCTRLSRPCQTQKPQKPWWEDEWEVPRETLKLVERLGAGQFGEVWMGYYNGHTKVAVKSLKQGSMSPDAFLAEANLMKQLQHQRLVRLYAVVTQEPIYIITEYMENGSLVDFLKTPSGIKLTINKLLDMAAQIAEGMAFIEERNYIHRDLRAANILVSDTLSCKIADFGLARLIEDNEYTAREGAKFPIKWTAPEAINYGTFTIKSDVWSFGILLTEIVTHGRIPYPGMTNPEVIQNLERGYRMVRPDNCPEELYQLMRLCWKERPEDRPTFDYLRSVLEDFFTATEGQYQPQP
[5] abbreviates: LCK, accession P06239-1, experiment wp081, direction of change down.
The mark [6] stands for this setting: LCK P06239-1, experiment wp160, 4 hr.
Setting [7] is: LCK, accession P06239-1, experiment wp160, 4 hr, direction of change down.

Structures are written as SMILES. Where two headings read alike, the source gives them in different places.

Sequence of protein kinases (human kinome) (Homo sapiens, UniProt Q9Y2K2) (Q9Y2K2 whole entry): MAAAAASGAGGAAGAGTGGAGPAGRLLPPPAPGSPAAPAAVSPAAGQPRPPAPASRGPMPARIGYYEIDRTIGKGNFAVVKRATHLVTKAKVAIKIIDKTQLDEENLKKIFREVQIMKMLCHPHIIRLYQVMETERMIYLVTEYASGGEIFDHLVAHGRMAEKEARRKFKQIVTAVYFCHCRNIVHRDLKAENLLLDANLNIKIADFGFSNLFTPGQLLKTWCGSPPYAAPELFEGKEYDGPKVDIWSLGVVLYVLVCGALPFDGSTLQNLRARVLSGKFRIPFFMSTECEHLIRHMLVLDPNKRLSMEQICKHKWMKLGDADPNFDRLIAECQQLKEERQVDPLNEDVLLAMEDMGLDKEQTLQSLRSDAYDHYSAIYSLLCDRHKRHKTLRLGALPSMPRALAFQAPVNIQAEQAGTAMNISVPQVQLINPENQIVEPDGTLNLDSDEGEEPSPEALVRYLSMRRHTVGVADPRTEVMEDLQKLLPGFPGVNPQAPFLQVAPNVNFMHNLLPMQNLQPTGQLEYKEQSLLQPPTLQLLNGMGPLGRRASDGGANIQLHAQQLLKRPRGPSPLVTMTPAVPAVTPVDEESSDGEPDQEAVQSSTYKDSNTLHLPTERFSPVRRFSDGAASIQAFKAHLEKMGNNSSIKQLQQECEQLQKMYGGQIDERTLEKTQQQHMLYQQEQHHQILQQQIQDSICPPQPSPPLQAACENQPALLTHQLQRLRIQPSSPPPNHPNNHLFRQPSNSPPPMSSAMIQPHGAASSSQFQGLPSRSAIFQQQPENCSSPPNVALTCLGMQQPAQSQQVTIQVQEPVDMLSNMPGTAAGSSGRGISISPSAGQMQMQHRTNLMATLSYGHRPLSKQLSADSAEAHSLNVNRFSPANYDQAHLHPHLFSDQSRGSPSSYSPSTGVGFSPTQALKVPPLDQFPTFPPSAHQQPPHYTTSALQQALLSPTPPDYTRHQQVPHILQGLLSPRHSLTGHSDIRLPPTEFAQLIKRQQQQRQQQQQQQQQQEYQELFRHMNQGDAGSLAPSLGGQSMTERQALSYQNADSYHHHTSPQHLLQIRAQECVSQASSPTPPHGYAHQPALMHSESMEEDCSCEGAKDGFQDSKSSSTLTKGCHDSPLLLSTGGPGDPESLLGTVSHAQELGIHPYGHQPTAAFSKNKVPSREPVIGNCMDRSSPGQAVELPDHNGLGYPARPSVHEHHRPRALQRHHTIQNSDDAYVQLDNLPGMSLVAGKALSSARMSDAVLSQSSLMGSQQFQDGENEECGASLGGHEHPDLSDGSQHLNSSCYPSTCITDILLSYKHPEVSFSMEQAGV
Sequence of protein kinases (human kinome) (Homo sapiens, UniProt P49840) (P49840 whole entry): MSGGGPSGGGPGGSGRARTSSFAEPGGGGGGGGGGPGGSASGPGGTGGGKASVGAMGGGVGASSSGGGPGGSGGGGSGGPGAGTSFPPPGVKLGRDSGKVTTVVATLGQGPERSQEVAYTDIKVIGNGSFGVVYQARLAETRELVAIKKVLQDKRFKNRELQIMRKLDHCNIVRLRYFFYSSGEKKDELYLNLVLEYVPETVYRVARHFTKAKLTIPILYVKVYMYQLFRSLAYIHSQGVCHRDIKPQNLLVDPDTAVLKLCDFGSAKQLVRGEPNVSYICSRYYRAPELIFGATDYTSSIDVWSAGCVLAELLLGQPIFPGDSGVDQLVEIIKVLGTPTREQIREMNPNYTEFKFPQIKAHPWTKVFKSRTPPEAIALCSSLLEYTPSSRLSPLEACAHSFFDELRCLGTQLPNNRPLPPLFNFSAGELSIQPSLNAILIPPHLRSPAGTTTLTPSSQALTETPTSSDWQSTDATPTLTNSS

As for `O=C1CCC(N2C(=O)c3cccc(NCCCCCCCCN4CCC(NC(=O)c5[nH]ncc5NC(=O)c5c(Cl)cccc5Cl)CC4)c3C2=O)C(=O)N1` (stereo not shown) [MFH.5.126.1], in experiment [1] (experiment wp076), the logFC is listed as −0.7531 and the “logFC GSK3A” value was −0.7531.
Regarding `Cc1ccc(NC(=O)c2cccc(C(F)(F)F)c2)cc1N1Cc2cnc(Nc3ccc(N4CCN(CCCCC(=O)N[C@H](C(=O)N5C[C@H](O)C[C@H]5C(=O)N[C@@H](C)c5ccc(-c6scnc6C)cc5)C(C)(C)C)CC4)nc3)nc2N(C)C1=O` [DB1113], the “logFC EPHA3” value in experiment [2] (Accession P29320, experiment wp168, direction down) is recorded as −0.4182; in experiment [2] (EPHA3 (P29320), experiment wp168), −0.4182. In experiment [3] (Experiment wp168), the “logFC of SIK3 (Q9Y2K2)” value is −1.602. The same compound gave a logFC in experiment [3] (experiment wp168) of −1.602.
Turning to `Cc1cc(Nc2ncc(Br)c(Nc3cccc(F)c3C(N)=O)n2)ccc1S(=O)(=O)NCCOCCOCCOCCOCCNc1cccc2c1C(=O)N(C1CCC(=O)NC1=O)C2=O` (stereo not shown) [TMX.02.174], in experiment [1] (experiment wp146), the logFC is listed as −0.7133 and the “logFC GSK3A” value is on record as −0.7133.
On to `Cc1cnc(Nc2ccc(N3CCN(CCCCCCC(=O)N[C@H](C(=O)N4C[C@H](O)C[C@H]4C(=O)N[C@@H](C)c4ccc(-c5scnc5C)cc4)C(C)(C)C)CC3)cc2)nc1Nc1cccc(S(=O)(=O)NC(C)(C)C)c1` [JWG.123], for which, in experiment [3] (Experiment wp195), the “logFC of SIK3 (Q9Y2K2)” value is −1.322. This compound displayed a logFC in experiment [3] (experiment wp195) of −1.322.
As to `Cc1ccc(C(=O)Nc2ccc(CN3CCN(CCOCCOCCNC(=O)CNc4cccc5c4C(=O)N(C4CCC(=O)NC4=O)C5=O)CC3)c(C(F)(F)F)c2)cc1C#Cc1cnc2cccnn12` (stereo not shown) [TL13.150], the “logFC LCK” value in experiment [4] (LCK P06239-1, experiment wp081) was −0.7129; in experiment [4] (setting [5]), −0.7129.
Consider `Cc1ccc(NC(=O)c2cccc(C(F)(F)F)c2)cc1N1Cc2cnc(Nc3ccc(N4CCN(Cc5cn(CCCCCOc6cccc7c6C(=O)N(C6CCC(=O)NC6=O)C7=O)nn5)CC4)nc3)nc2N(C)C1=O` (stereo not shown) [DB0646, N-(3-(7-((6-(4-((1-(5-((2-(2,6-Dioxopiperidin-3-yl)-1,3-dioxoisoindolin-4-yl)oxy)pentyl)-1H-1,2,3-triazol-4-yl)methyl)piperazin-1-v)pyridin-3-yl)amino)-1-methyl-2-oxo-1,4-dihydropyrimido[4,5-d]pyrimidin-3(2H)-yl)-4-methylphenyl)-3-(trifluoromethyl)benzamide], for which the “logFC LCK” value was −0.4575 in experiment [4] (setting [6]); −0.5386 in experiment [4] (LCK P06239-1, experiment wp160, 8 hr); −0.4575 in experiment [4] (setting [7]); −0.5386 in experiment [4] (LCK, accession P06239-1, experiment wp160, 8 hr, direction of change down); −0.4468 in experiment [4] (LCK, accession P06239, experiment wp152, direction of change down). For the same compound, the “logFC of LCK (P06239)” value in experiment [4] (experiment wp152) was −0.4468. Besides, the “logFC EPHA3” value in experiment [2] (Accession P29320, experiment wp045, direction down) is given as −0.5333; in experiment [2] (Accession P29320, experiment wp103, direction down), −0.3715; in experiment [2] (Accession P29320, experiment wp107, direction down) it was −0.4346; in experiment [2] (Accession P29320, experiment wp117, direction down), −0.3587; in experiment [2] (Accession P29320, experiment wp152, direction down) it was −0.3871; in experiment [2] (Accession P29320, experiment wp160, 4 hr, direction down), −0.5814. For the same compound, the “logFC EPHA3” value was −0.5528 in experiment [2] (Accession P29320, experiment wp160, 8 hr, direction down); −0.5333 in experiment [2] (EPHA3 (P29320), experiment wp045); −0.3715 in experiment [2] (EPHA3 (P29320), experiment wp103); −0.4346 in experiment [2] (EPHA3 (P29320), experiment wp107); −0.3587 in experiment [2] (EPHA3 (P29320), experiment wp117); −0.3871 in experiment [2] (EPHA3 (P29320), experiment wp152). Also, the “logFC EPHA3” value is −0.5814 in experiment [2] (EPHA3 (P29320), experiment wp160, 4 hr) and −0.5528 in experiment [2] (EPHA3 (P29320), experiment wp160, 8 hr).
Regarding `NC(=O)c1c(F)cccc1Nc1nc(Nc2ccc(S(=O)(=O)NCCOCCOCCOCCOCCNc3cccc4c3C(=O)N(C3CCC(=O)NC3=O)C4=O)cc2)ncc1Br` (stereo not shown) [TMX.02.138], in experiment [1] (experiment wp146), the logFC is −0.8225 and the “logFC GSK3A” value was −0.8225.
Consider `Cc1ncsc1-c1ccc([C@H](C)NC(=O)[C@@H]2C[C@@H](O)CN2C(=O)[C@@H](NC(=O)CCCCCN2CCc3cc(Nc4ncc(C5CC5)c(NCCCNC(=O)C5CCC5)n4)ccc3C2)C(C)(C)C)cc1` [BSJ.05.026], for which, in experiment [3] (Experiment wp195), the “logFC of SIK3 (Q9Y2K2)” value was −1.186. In addition, the logFC in experiment [3] (experiment wp195) is listed as −1.186.
`Cc1ccc(NC(=O)c2cccc(C(F)(F)F)c2)cc1N1Cc2cnc(Nc3ccc(N4CCN(CCCOc5cccc6c5C(=O)N(C5CCC(=O)NC5=O)C6=O)CC4)nc3)nc2N(C)C1=O` (stereo not shown) [DB0662]: the “logFC LCK” value in experiment [4] (LCK P06239-1, experiment wp168) is listed as −0.9078; in experiment [4] (LCK, accession P06239-1, experiment wp168, direction of change down) it was −0.9078.
Take `Nc1ncc(-c2ccc(S(=O)(=O)N(CCCNC(=O)CCOCCOCCOCCOCCOCCNc3cccc4c3C(=O)N(C3CCC(=O)NC3=O)C4=O)C3CC3)cc2)cc1-c1ccc2c(c1)CCNC2=O` (stereo not shown) [WH.10417.099]: the logFC in experiment [1] (experiment wp056) is given as −0.5169; in experiment [1] (experiment wp103), −0.443; in experiment [1] (experiment wp105), −0.4499; in experiment [1] (experiment wp107), −0.4697. Also, the “logFC GSK3A” value in experiment [1] (experiment wp056) is reported as −0.5169; in experiment [1] (experiment wp103), −0.443; in experiment [1] (experiment wp105) it was −0.4499; in experiment [1] (experiment wp107), −0.4697.
As to `CC(C)S(=O)(=O)c1ccccc1Nc1nc(Nc2ccc(N3CCN(CCOCCNC(=O)CNc4cccc5c4C(=O)N(C4CCC(=O)NC4=O)C5=O)CC3)cc2)ncc1Cl` (stereo not shown) [SK.3.91], the “logFC LCK” value in experiment [4] (LCK P06239-1, experiment wp160, 2 hr) is listed as −0.4627; in experiment [4] (setting [6]) it was −1.173; in experiment [4] (LCK, accession P06239-1, experiment wp160, 2 hr, direction of change down), −0.4627; in experiment [4] (setting [7]), −1.173.
Consider `Cn1c(=O)c(-c2c(Cl)cccc2Cl)cc2cnc(Nc3ccc(OCCNC(=O)CCCCCCNC(=O)COc4cccc5c4C(=O)N(C4CCC(=O)NC4=O)C5=O)cc3)nc21` (stereo not shown) [SB1.G.192.1], for which the “logFC LCK” value in experiment [4] (LCK P06239-1, experiment wp081) is recorded as −1.748; in experiment [4] (setting [5]) it was −1.748. Also, the “logFC EPHA3” value in experiment [2] (Accession P29320, experiment wp071, direction down) is recorded as −1.175; in experiment [2] (Accession P29320, experiment wp081, direction down), −1.027; in experiment [2] (Accession P29320, experiment wp131, direction down) it was −1.318; in experiment [2] (EPHA3 (P29320), experiment wp071), −1.175; in experiment [2] (EPHA3 (P29320), experiment wp081), −1.027; in experiment [2] (EPHA3 (P29320), experiment wp131), −1.318.
